# From patent US12533417B2, “L-DOPA and/or DOPA decarboxylse inhibitors conjugated to sugar for the treatment of dopamine-responsive disorders” (B. G. Negev Technologies and Applications Ltd., at …, priority 2018, dated 2026)
# What was measured:
# [1] = Pharmacokinetic of L-DOPA following intravenous administration of L-DOPA and L-DOPAM-2 to mice; assay type: in vivo; settings: for L-DOPA in the plasma: equivalent to 80 mg/kg L-DOPA, 4 and 8 hours after injection, no DOPA decarboxylase inhibitor
# Method: In order to analyze the stability of DOPAM-2 in vivo, mice were injected intravenously with either L-DOPAM-2 or L-DOPA, where in either case, an equimolar dose of L-DOPA was administered (equivalent to 80 mg/kg L-DOPA). Mice were sacrificed 30, 60, 120, 240, and 480 minutes after the injection of the tested drug, blood was collected and plasma obtained by centrifugation. L-DOPA concentration was determined by LC-MS. 3 mice were tested per each time point, and each point on the graph represents mean±SEM.
# [2] = Stability of L-DOPAM in serum, LC-MS peak areas (Example 4); assay type: in vitro ADME, human; settings: for Area L-DOPA (LC-MS peak area) / Area L-DOPAM (LC-MS peak area) / Area Mannitol (LC-MS peak area): L-DOPAM 2 mg/ml in serum, 36° C.
# Method: (§1) The stability of one molecule of L-DOPA and one Mannitol (L-DOPAM-1, M.W. 361) in serum was evaluated according to the following procedure: • 1. A solution of 2 mg L-DOPAM in lml of serum was prepared; • 2. A 200 μl aliquot was immediately withdrawn from that solution; • 3. 180 μl of TCA (trichloroacetic acid) 0.6N solution was added; • 4. The obtained mixture was centrifuged (5,000 rpm, 15 min., 40° C.); • 5. The supernatant was filtrated through 0.22 μm filter; • 6. The filtrate was diluted 20 times and injected into Liquid chromatography-mass spectrometry (LC-MS) (column: LUNA 3u C18 (2) 100A; 150×1.0 mm). The eluents were A=Acetonitrile, B=H2O+0.1% Acetic Acid. The following LC gradient was used: […]
# The L-DOPAM solution in serum was stored at 36° C. Steps 2-6 were repeated after 2, 4, 23 and 46.5 hours.
# The areas of the L-DOPAM, L-DOPA and Mannitol peaks were determined by extraction of only the ions of interest (FIGS. 3-7). The L-DOPA metabolite dopamine was not detected.
# In order to semi-quantitatively determine the stability of L-DOPAM, the ratio of the peak areas of L-DOPA versus L-DOPAM and Mannitol versus L-DOPAM was calculated. An increase of the ratio of L-DOPA and Mannitol over time indicates the breakdown of L-DOPAM in serum.
# [3] = L-DOPA concentration in human serum after adding DOPAM, HPLC-MS with internal standard; assay type: in vitro ADME
# Method: HPLC-MS area under the curve were examined after addition of various L-DOPA concentrations to serum (FIG. 10). […] DOPAM was added to human serum in vitro, and L-DOPA concentrations in serum at various timepoints were determined by HPLC-MS and quantified using an internal standard. DOPAM released L-DOPA continuously over at least 24 hours (FIG. 12). The concentration of L-DOPA in serum increased in a linear fashion during the first 6 hours after adding DOPAM to the serum, after which L-DOPA concentration continued to increase through the final time point examined in this experiment (24 hours after DOPAM addition; FIG. 12).
# [4] = Release of L-DOPA from L-DOPAM-1 and L-DOPAM-4 in human serum in vitro (Example 5); assay type: in vitro ADME; settings: 37° C., L-DOPA concentration by LC-MS (FIG. 13)
# Method: as §1
# The stability of one molecule of L-DOPA and one of mannitol (L-DOPAM-1), and of four molecules of L-DOPA and one of mannitol (L-DOPAM-4) in serum was evaluated by the method disclosed in Example 4. L-DOPAM-1 and L-DOPAM-4 were added into human serum and incubated at 37° C. Samples were taken at various times after the addition of the drugs to the serum and L-DOPA concentration was determined by LC-MS.
structure (smiles),measurement,setting,value
NC(Cc1ccc(O)c(O)c1)C(=O)OCC(OC(=O)C(N)Cc1ccc(O)c(O)c1)C(O)C(O)C(O)CO (centres unmarked) [DOPAM-2],L-DOPA in the plasma,[1],significant levels of L-DOPA
same,plasma concentrations of L-DOPA compared with mice injected with L-DOPA,"[1]; equivalent to 80 mg/kg L-DOPA, 60, 120, 240, and 480 minutes after injection",higher
NC(Cc1ccc(O)c(O)c1)C(=O)OC(CO)C(O)C(O)C(O)CO [L-DOPAM-1],L-DOPAM detection in serum,[2]; 46 h after exposure of L-DOPAM to serum,still detected
same,Area L-DOPA (LC-MS peak area),[2]; time 0 h,1019288083
same,Area L-DOPAM (LC-MS peak area),[2]; time 0 h,4065363001
same,Area Mannitol (LC-MS peak area),[2]; time 0 h,60908307
same,Area L-DOPA (LC-MS peak area),[2]; time 2 h,2345301782
same,Area L-DOPAM (LC-MS peak area),[2]; time 2 h,3292402130
same,Area Mannitol (LC-MS peak area),[2]; time 2 h,65437168
same,Area L-DOPA (LC-MS peak area),[2]; time 4 h,2632498093
same,Area L-DOPAM (LC-MS peak area),[2]; time 4 h,2146859775
same,Area Mannitol (LC-MS peak area),[2]; time 4 h,97930402
same,Area L-DOPA (LC-MS peak area),[2]; time 23 h,1539342894
same,Area L-DOPAM (LC-MS peak area),[2]; time 23 h,498391022
same,Area Mannitol (LC-MS peak area),[2]; time 23 h,73274763
same,Area L-DOPA (LC-MS peak area),[2]; time 46.5 h,26308871
same,Area L-DOPAM (LC-MS peak area),[2]; time 46.5 h,460814075
same,Area Mannitol (LC-MS peak area),[2]; time 46.5 h,83932712
same,Mannitol levels,[2]; L-DOPAM in serum (FIG. 9),increased over time
same,L-DOPA metabolite dopamine detected,"[2]; L-DOPAM in serum, 0-46.5 h, LC-MS",not detected
same,Ratio L-DOPA/L-DOPAM (peak areas),"[2]; L-DOPAM in serum, time 0 h",0.251
same,Ratio Mannitol/L-DOPAM (peak areas),"[2]; L-DOPAM in serum, time 0 h",0.015
same,Ratio L-DOPA/L-DOPAM (peak areas),"[2]; L-DOPAM in serum, time 2 h",0.712
same,Ratio Mannitol/L-DOPAM (peak areas),"[2]; L-DOPAM in serum, time 2 h",0.020
same,Ratio L-DOPA/L-DOPAM (peak areas),"[2]; L-DOPAM in serum, time 4 h",1.226
same,Ratio Mannitol/L-DOPAM (peak areas),"[2]; L-DOPAM in serum, time 4 h",0.046
same,Ratio L-DOPA/L-DOPAM (peak areas),"[2]; L-DOPAM in serum, time 23 h",3.089
same,Ratio Mannitol/L-DOPAM (peak areas),"[2]; L-DOPAM in serum, time 23 h",0.147
same,Ratio L-DOPA/L-DOPAM (peak areas),"[2]; L-DOPAM in serum, time 46.5 h",0.057
same,Ratio Mannitol/L-DOPAM (peak areas),"[2]; L-DOPAM in serum, time 46.5 h",0.182
same,time up to which L-DOPA levels increased,"[2]; L-DOPAM in serum, sharp decrease at the 46 h time point (FIG. 8)",23 h
same,time over which L-DOPA was released continuously,"[3]; DOPAM added to human serum in vitro, 37° C. (FIG. 12)",at least 24 hours
same,period of linear increase of L-DOPA concentration in serum,[3]; after adding DOPAM to human serum (FIG. 12),6 h
same,time L-DOPA present in serum,[3],at least 24 hours
same,course of levels after the increase,[4],gradual decrease at 24 and 48 hours
same,time up to which levels increased,[4],8 h
NC(Cc1ccc(O)c(O)c1)C(=O)OCC(OC(=O)C(N)Cc1ccc(O)c(O)c1)C(O)C(O)C(COC(=O)C(N)Cc1ccc(O)c(O)c1)OC(=O)C(N)Cc1ccc(O)c(O)c1 [L-DOPAM-4],course of levels after the increase,[4],decreased slightly through the final time point examined after 72 hours
same,time up to which levels increased,[4],24 h
same,time up to which levels increased linearly,[4],5 h
N[C@@H](Cc1ccc(O)c(O)c1)C(=O)O [L-DOPA],time L-DOPA present in serum,[3],about 2 hours
same,L-DOPA in the plasma,[1],no L-DOPA was detected
